Molecules are shown by their SMILES.

The test addresses T1, recombinant full-length human prolyl endopeptidase (PREP) (Homo sapiens, UniProt P48147).
T1 construct: To recombinant full-length human prolyl endopeptidase (PREP, R&D-Systems, 4308-SE); purchased R&D-Systems 4308-SE
T1 sequence (P48147 1-710): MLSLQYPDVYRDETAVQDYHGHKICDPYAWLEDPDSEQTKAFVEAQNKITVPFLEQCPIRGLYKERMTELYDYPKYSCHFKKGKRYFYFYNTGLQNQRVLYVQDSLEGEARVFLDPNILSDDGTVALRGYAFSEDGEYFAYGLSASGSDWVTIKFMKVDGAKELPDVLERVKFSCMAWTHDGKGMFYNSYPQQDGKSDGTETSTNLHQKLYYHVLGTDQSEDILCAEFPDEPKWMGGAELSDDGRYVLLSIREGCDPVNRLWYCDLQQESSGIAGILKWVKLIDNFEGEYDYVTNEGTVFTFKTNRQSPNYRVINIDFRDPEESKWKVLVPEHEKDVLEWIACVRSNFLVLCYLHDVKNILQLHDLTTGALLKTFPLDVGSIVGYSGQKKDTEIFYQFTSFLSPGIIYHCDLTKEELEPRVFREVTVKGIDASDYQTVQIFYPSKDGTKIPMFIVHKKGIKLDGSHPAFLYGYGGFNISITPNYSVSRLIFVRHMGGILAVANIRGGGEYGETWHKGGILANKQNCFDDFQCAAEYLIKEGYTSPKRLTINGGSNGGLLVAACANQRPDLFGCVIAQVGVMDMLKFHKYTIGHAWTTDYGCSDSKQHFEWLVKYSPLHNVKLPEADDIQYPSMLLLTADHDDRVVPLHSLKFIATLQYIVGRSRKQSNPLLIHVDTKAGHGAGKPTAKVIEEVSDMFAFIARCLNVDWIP
Description: Biochemical human prolyl endopeptidase (PREP) assay with fluorescently labelled substrate. The following applies: substrate Z-Gly-Pro-AMC 50 μM, 32° C., 60 min; some as mean values from multiple independent determinations. The method in brief: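 Initial rates of fluorescence increase from 50 μM Z-Gly-Pro-AMC cleavage (ex 360/em 465 nm, 60 min, 32° C) give percent PREP activity versus no-compound control, and IC50 is interpolated. Enzyme used at 0.4 nM (final, example) in Tris pH 7.5 with EDTA, GSH, BSA and Brij-35; compounds span 1 nM to 30 μM.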
Take `O=C(C1CC(C(F)(F)F)Cc2nn(Cc3ccc(Cl)cn3)c(=O)n21)N1CCC(F)(F)C1` (racemic) [Example 566, (5RS,7RS)-2-[(5-Chloropyridin-2-yl)methyl]-5-[(3,3-difluoropyrrolidin-1-yl)carbonyl]-7-(trifluoromethyl)-5,6,7,8-tetrahydro[1,2,4]triazolo[4,3-a]pyridin-3(2H)-one]: the IC50 turned out to be 4.1 nM.

Regarding `O=C(C1CCCc2nn(Cc3ccc(F)c(Cl)c3)c(=O)n21)N1CCCC1` (racemic) [Example 18, (5RS)-2-(3-Chloro-4-fluorobenzyl)-5-(pyrrolidin-1-ylcarbonyl)-5,6,7,8-tetrahydro[1,2,4]triazolo[4,3-a]pyridin-3(2H)-one], the IC50 was found to be 0.575 nM.

Turning to `Cc1nc(C)c(Cn2nc3n(c2=O)C(C(=O)N2CCCC2)CCC3)nc1C` (single isomer, unassigned) [Example 104, (5RS)-5-(Pyrrolidin-1-ylcarbonyl)-2-[(3,5,6-trimethylpyrazin-2-yl)methyl]-5,6,7,8-tetrahydro[1,2,4]triazolo[4,3-a]pyridin-3(2H)-one], the IC50 stood at 0.46 nM.

Turning to `O=C(C1CCCc2nn(Cc3ccnc(Cl)c3)c(=O)n21)N1CCCC1` (racemic) [Example 59, (5RS)-2-[(2-Chloropyridin-4-yl)methyl]-5-(pyrrolidin-1-ylcarbonyl)-5,6,7,8-tetrahydro[1,2,4]triazolo[4,3-a]pyridin-3(2H)-one], the IC50 amounted to 12.2 nM.

For the compound `O=C(C1C(C(F)(F)F)CCc2nn(Cc3ccc(C(F)(F)F)nc3)c(=O)n21)N1CC[C@H](F)C1` (single isomer, unassigned) [Example 285], the IC50 stood at 1.3 nM.

Take `O=C([C@@H]1CCCc2nn(Cc3ncc(Cl)cc3F)c(=O)n21)N1C[C@@H](F)[C@@H](F)C1` [Example 408, (5S)-2-[(5-Chloro-3-fluoropyridin-2-yl)methyl]-5-{[(3R,4S)-3,4-difluoropyrrolidin-1-yl]carbonyl}-5,6,7,8-tetrahydro[1,2,4]triazolo[4,3-a]pyridin-3(2H)-one]: the IC50 amounted to 0.46 nM.

For `Cc1ccc(Cn2nc3n(c2=O)C(C(=O)N2CCC4(C2)CC4(F)F)CCC3)cc1` (single isomer, unassigned) [Example 129, (5RS)-{[(3RS)-1,1-Difluoro-5-azaspiro[2.4]hept-5-yl]carbonyl}-2-(4-methylbenzyl)-5,6,7,8-tetrahydro[1,2,4]triazolo[4,3-a]pyridin-3(2H)-one], the IC50 turned out to be 10 nM.

As to `O=C(C1CC(C(F)(F)F)Cc2nn(Cc3ccnc(C(F)(F)F)c3F)c(=O)n21)N1C[C@@H](F)[C@@H](F)C1` (single isomer, unassigned) [Example 261], the IC50 was found to be 1 nM.

`O=C([C@@H]1CCCc2nn(Cc3cncc(Br)c3)c(=O)n21)N1C[C@@H](F)[C@@H](F)C1` [Example 506, (5S)-2-[(5-Bromopyridin-3-yl)methyl]-5-{[(3R,4S)-3,4-difluoropyrrolidin-1-yl]carbonyl}-5,6,7,8-tetrahydro[1,2,4]triazolo[4,3-a]pyridin-3(2H)-one]: the half-maximal inhibitory concentration (IC50) amounted to 1.2 nM.

On to `O=C(C1CC(C(F)(F)F)Cc2nn(Cc3ccc(Cl)nc3)c(=O)n21)N1C[C@@H](F)[C@@H](F)C1` (single isomer, unassigned) [Example 250], for which the IC50 came out at 0.92 nM.

With `O=C([C@@H]1CC=Cc2nn(Cc3ccc(C(F)(F)F)nc3)c(=O)n21)N1C[C@@H](F)[C@@H](F)C1` [Example 558, (5S)-5-{[(3R,4S)-3,4-Difluoropyrrolidin-1-yl]carbonyl}-2-{[6-(trifluoromethyl)pyridin-3-yl]methyl}-5,6-dihydro[1,2,4]triazolo[4,3-a]pyridin-3(2H)-one], the IC50 is 1.9 nM.

Consider `Cc1ccc(Cn2nc3n(c2=O)[C@H](C(=O)N2CC[C@@H](O)C2)CCC3)cc1` [Example 122, (5S)-5-{[(3R)-3-Hydroxypyrrolidin-1-yl]carbonyl}-2-(4-methylbenzyl)-5,6,7,8-tetrahydro[1,2,4]triazolo[4,3-a]pyridin-3(2H)-one], for which the IC50 is 10.2 nM.

`O=C([C@@H]1CCCc2nn(Cc3ccc(F)cc3Cl)c(=O)n21)N1C[C@@H](F)[C@@H](F)C1` [Example 474, (5S)-2-(2-Chloro-4-fluorobenzyl)-5-{[(3R,4S)-3,4-difluoropyrrolidin-1-yl]carbonyl}-5,6,7,8-tetrahydro[1,2,4]triazolo[4,3-a]pyridin-3(2H)-one]: the IC50 came out at 0.36 nM.

Turning to `Cc1ccc(C(F)(F)Cn2nc3n(c2=O)[C@H](C(=O)N2CC[C@H](F)C2)CCC3)cc1` [Example 517, (5S)-2-[2,2-Difluoro-2-(4-methylphenyl)ethyl]-5-{[(3S)-3-fluoropyrrolidin-1-yl]carbonyl}-5,6,7,8-tetrahydro[1,2,4]triazolo[4,3-a]pyridin-3(2H)-one], the half-maximal inhibitory concentration (IC50) amounted to 0.95 nM.

Turning to `O=C([C@@H]1CCCc2nn(Cc3ccc(Br)cc3)c(=O)n21)N1CC[C@H](F)C1` [Example 212, (5S)-2-(4-Bromobenzyl)-5-{[(3S)-3-fluoropyrrolidin-1-yl]carbonyl}-5,6,7,8-tetrahydro[1,2,4]triazolo[4,3-a]pyridin-3(2H)-one], the IC50 came to 0.041 nM.

For `Cc1ccc(Cn2nc3n(c2=O)C(C(=O)N2CCS(=O)(=O)C2)CCC3)cc1` (single isomer, unassigned) [Example 142, (5RS)-5-[(1,1-Dioxido-1,3-thiazolidin-3-yl)carbonyl]-2-(4-methylbenzyl)-5,6,7,8-tetrahydro[1,2,4]triazolo[4,3-a]pyridin-3(2H)-one], the IC50 came out at 2.55 nM.

For the compound `O=C([C@@H]1CCCc2nn(Cc3ccc(C(F)(F)F)nc3)c(=O)n21)N1CC(F)C1` [Example 429, (5S)-5-[(3-Fluoroazetidin-1-yl)carbonyl]-2-{[6-(trifluoromethyl)pyridin-3-yl]methyl}-5,6,7,8-tetrahydro[1,2,4]triazolo[4,3-a]pyridin-3(2H)-one], the IC50 was found to be 3.7 nM.

In the case of `O=C(C1CC(C(F)(F)F)Cc2nn(Cc3ccc(Cl)nc3)c(=O)n21)N1CC[C@@H](F)C1` (single isomer, unassigned) [Example 246], the IC50 was determined as 1.3 nM.

In the case of `O=C([C@@H]1CCCc2nn(Cc3nnc(C(F)(F)F)o3)c(=O)n21)N1CCC(F)(F)C1` [Example 541, (5S)-5-[(3,3-Difluoropyrrolidin-1-yl)carbonyl]-2-{[5-(trifluoromethyl)-1,3,4-oxadiazol-2-yl]methyl}-5,6,7,8-tetrahydro[1,2,4]triazolo[4,3-a]pyridin-3(2H)-one], the IC50 came out at 63 nM.

With `O=C(C1CCCc2nn(Cc3ccc(C(F)(F)F)nc3)c(=O)n21)N1CCCC1` (racemic) [Example 84, (5RS)-5-(Pyrrolidin-1-ylcarbonyl)-2-{[6-(trifluoromethyl)pyridin-3-yl]methyl}-5,6,7,8-tetrahydro[1,2,4]triazolo[4,3-a]pyridin-3(2H)-one], the IC50 turned out to be 5.7 nM.

Consider `O=C(C1CCCc2nn(Cc3ccc(Cl)c(Cl)c3)c(=O)n21)N1CCC(F)(F)C1` (racemic) [Example 45, (5RS)-2-(3,4-Dichlorobenzyl)-5-[(3,3-difluoropyrrolidin-1-yl)carbonyl]-5,6,7,8-tetrahydro[1,2,4]triazolo[4,3-a]pyridin-3(2H)-one], for which the IC50 stood at 1.6 nM.

In the case of `O=C([C@@H]1CCCc2nn(Cc3cccc(C(F)(F)F)c3)c(=O)n21)N1CC[C@H](F)C1` [Example 444, (5S)-5-{[(3S)-3-Fluoropyrrolidin-1-yl]carbonyl}-2-[3-(trifluoromethyl)benzyl]-5,6,7,8-tetrahydro[1,2,4]triazolo[4,3-a]pyridin-3(2H)-one], the IC50 was 0.19 nM.

`O=C(C1CC(C(F)(F)F)Cc2nn(Cc3ncc(Cl)cc3F)c(=O)n21)N1C[C@@H](F)[C@@H](F)C1` (mixture of isomers) [Example 266, (5RS,7RS)-2-[(5-Chloro-3-fluoropyridin-3-yl)methyl]-5-{[(3R,4S)-3,4-difluoropyrrolidin-1-yl]carbonyl}-7-(trifluoromethyl)-5,6,7,8-tetrahydro[1,2,4]triazolo[4,3-a]pyridin-3(2H)-one]: the IC50 amounted to 5.1 nM.

Turning to `Cc1cccc(Cn2nc3n(c2=O)C(C(=O)N2CCCC2)CCC3)c1` (racemic) [Example 8, (5RS)-2-(3-Methylbenzyl)-5-(pyrrolidin-1-ylcarbonyl)-5,6,7,8-tetrahydro[1,2,4]triazolo[4,3-a]pyridin-3(2H)-one], the IC50 turned out to be 0.99 nM.

For `O=C(C1CC(C(F)(F)F)Cc2nn(Cc3ccc(Cl)nc3)c(=O)n21)N1CC[C@H](F)C1` (single isomer, unassigned) [Example 243], the IC50 is 0.623 nM.

In the case of `O=C([C@@H]1CCCc2nn(CCc3ccc(F)cc3)c(=O)n21)N1C[C@@H](F)[C@@H](F)C1` [Example 344, (5S)-5-{[(3R,4S)-3,4-Difluoropyrrolidin-1-yl]carbonyl}-2-[2-(4-fluorophenyl)ethyl]-5,6,7,8-tetrahydro[1,2,4]triazolo[4,3-a]pyridin-3(2H)-one], the IC50 is 0.53 nM.

The values are drawn from US10722501B2 (BAYER AKTIENGESELLSCHAFT, priority 2016, dated 2020).
